Experimental findings from patent US8445484B2, “Bicyclic peptidomimetic inhibitors of aspartyl-proteases for the treatment of infectious diseases” (Istituto Superiore di Sanita', priority 2008, dated 2013) are described below.

One test has as its target SAP2 (Candida albicans, UniProt P0DJ06). Type of test: biochemical. As to conditions: 10 μm compound; relative to pepstatin; pH 3.2, 30 min at 37° C. How it is done: Spectrophotometric method: protease activity of the various compounds of formula (I) was measured by a spectrophotometric assay with respect to pepstatin activity at the same concentration: each assay contained 50 μl of sample in 0.4 ml of 1% (w/v) BSA in 50 mM sodium citrate pH 3.2 and 50 μl of protease solution (1 μg/ml) After 30 min at 37° C. 1 ml 10% (w/v) trichloroacetic acid was added. The tubes were stored in ice for 30 min, and then centrifuged (3000 g) for 10 min. The absorbance of the supernatant was read at 280 nm. Control: 1% BSA in citrate buffer. One unit of the enzyme catalysed a ΔA280 of 1 min^−1. With the pure protease the assay was proportional to enzyme concentration over the range ΔA280 0.1-0.4 and a limit detection of 1 μg (De Bernardis F., Sullivan P. A., Cassone A. Medical Mycology 2001, 39, 303).

For another test, the system named is C. albicans SA40. Kind of test: Experimental rat vaginal infection, C. albicans SA40 clearance. It is filed as in vivo, Candida albicans. As to conditions: for Candida SA40 cells in vaginal fluid (CFU/ml): oophorectomized Wistar rats, intravaginal treatment 1, 24, 48 hrs after challenge. As to the method: (§1) Experimental vaginal infection: for the experimental vaginal infection, a previously described rat vaginal model was adopted (De Bernardis, F.; Boccanera, M.; Adriani, D.; Spreghini, E.; Santoni, G.; Cassone, A. Infect. Immun., 1997, 65, 3399).
(§2) In brief, oophorectomized female Wistar rats (80-100 g; Charles River Calco, Italy) were injected subcutaneously with 0.5 mg of estradiol benzoate (Estradiolo, Amsa Farmaceutici srl, Rome, Italy). Six days after the first estradiol the animals were inoculated intravaginally with […] yeast cells in 0.1 ml of saline solution of each C. albicans strain tested. The inoculum was dispensed into the vaginal cavity through a syringe equipped with a multipurpose calibrated tip (Combitip; PBI, Milan, Italy). The yeast cells had been previously grown in YPD broth (yeast extract 1%; peptone 2%; dextrose 2%) at 28° C. on a gyrator shaker (200 rpm), harvested by centrifugation (1500 g), washed, counted in a hemocytometer, and suspended to the required number in saline solution. The number of cells in the vaginal fluid was counted by culturing 100 μl samples (using a calibrated plastic loop, Disponoic, PBI, Milan, Italy) taken from each animals, on Sabouraud agar containing chloramphenicol (50 μg/ml) as previously described. The rat was considered infected when at least 1 CFU was present in the vaginal lavage, i.e. a count of […].
(§3) Positive (pepstatin 10 μg; fluconazole 10 μg and negative (sterile saline solution) were similarly administered.

For the next test, the system named is C. albicans AIDS68. Nature of the test: Experimental rat vaginal infection, C. albicans AIDS68 (pharmacoresistant) clearance. Type of test: in vivo, Candida albicans. As to conditions: for Candida AIDS68 cells in vaginal fluid (CFU/ml): oophorectomized Wistar rats, intravaginal treatment 1, 24, 48 hrs after challenge. As to the method:
as §1, §2, §3

Square brackets hold non-standard residues; d marks the D form. Peptide text beside a SMILES is read from it. * marks the point of attachment. Sta = CC(C)C[C@H](N)[C@@H](O)CC(=O)O; Isovaleryl = CC(C)CC(=O)* A value given as a limit tells only on which side of the number the result lay.

SAP2, sequence (P0DJ06 57-398): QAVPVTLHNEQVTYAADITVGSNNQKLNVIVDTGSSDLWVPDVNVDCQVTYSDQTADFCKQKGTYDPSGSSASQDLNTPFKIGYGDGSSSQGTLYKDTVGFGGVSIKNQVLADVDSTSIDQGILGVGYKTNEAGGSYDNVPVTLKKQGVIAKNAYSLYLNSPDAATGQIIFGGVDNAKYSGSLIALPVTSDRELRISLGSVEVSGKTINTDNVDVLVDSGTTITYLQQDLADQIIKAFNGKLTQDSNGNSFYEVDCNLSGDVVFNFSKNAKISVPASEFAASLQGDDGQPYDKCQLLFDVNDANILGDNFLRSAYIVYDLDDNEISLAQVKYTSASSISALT

`COC(=O)[C@H](CC(C)C)N1C[C@H]2O[C@H](C(=O)N3CCCCC3)[C@@H](O2)C1=O` [Cpd 1, (2S)-4-Methyl-2-[(1R,5S,7S)-2-oxo-7-(piperidine-1-carbonyl)-6,8-dioxa-3-aza-bicyclo[3.2.1]oct-3-yl]-pentanoic acid methyl ester]: the “1% percent of inhibition with respect to pepstatin at the same concentration” value (from here on “1% percent of inhibition”) at SAP2 stood at 37%.
With `COC(=O)[C@H](CC(C)C)N1C[C@H]2O[C@H](C(=O)N3CCOCC3)[C@@H](O2)C1=O` [Cpd 2, 4′-Methyl-(2′S)-2′-[(1R,5S,7S)-7-(morpholine-4-carbonyl)-2-oxo-6,8-dioxa-3-aza-bicyclo[3.2.1]oct-3-yl]-pentanoic acid methyl ester], on SAP2, the “1% percent of inhibition” value is listed as 32%.
On to `CCCCNC(=O)CC(O)CNC(=O)[C@H](CC(C)C)N1C[C@H]2O[C@H](C(=O)N3CCCCC3)[C@@H](O2)C1=O` (stereo partly drawn) [Cpd 3, (2S)-4-Methyl-2-[(1R,5S,7S)-2-oxo-7-(piperidine-1-carbonyl)-6,8-dioxa-3-aza-bicyclo[3.2.1]oct-3-yl]-pentanoic acid (3-butylcarbamoyl-2-hydroxy-propyl)-amide], for which the “1% percent of inhibition” value at SAP2 was determined as 22%.
As to `O=C(NCCO)C1OC2CN(Cc3ccccc3)C(=O)C1O2` (stereo not shown) [Cpd 4], the “1% percent of inhibition” value on SAP2 turned out to be 36%.
Still for that read-out and setting: the value for `CC(C)CC(CO)NC(=O)C1OC2CN(Cc3ccccc3)C(=O)C1O2` (stereo not shown) [Cpd 5] was 41%.
As to `O=C(C1OC2CN(Cc3ccccc3)C(=O)C1O2)N1CCCCC1` (stereo not shown) [Cpd 6], the “differences between treated and untreated control” value was “statistically significant” in the test on C. albicans SA40 (SA40, starting day 1, P<0.01, Mann-withney U test) and “statistically significant” in the test on C. albicans AIDS68 (AIDS68, starting day 1, P<0.01, Mann-withney U test). Further, the “Candida SA40 cells in vaginal fluid (CFU/ml)” value (“Candida SA40 cells” below) in the test on C. albicans SA40 (day 0) was >100 ×1000; in the test with C. albicans SA40 (day 1), 70 ± 1.3 ×1000; with C. albicans SA40 (day 2), 57.6 ± 1.4 ×1000; with C. albicans SA40 (day 5), 39.2 ± 3 ×1000; in the test with C. albicans SA40 (day 7) it was 30.6 ± 1.8 ×1000; in the test on C. albicans SA40 (day 14), 14.4 ± 1.6 ×1000. Further, the results for the “Candida SA40 cells” value in the test with C. albicans SA40 (day 21) and in the test with C. albicans SA40 (day 28) were 8 ± 1.5 ×1000 and 1.2 ± 0.7 ×1000, respectively. Besides, on SAP2, the “1% percent of inhibition” value was 42%. Besides, the “Candida AIDS68 cells in vaginal fluid (CFU/ml)” value (shortened to “Candida AIDS68 cells”) in the test on C. albicans AIDS68 (day 0) is reported as >100 ± 0 ×1000; in the test with C. albicans AIDS68 (day 1) it was 71.8 ± 1.3 ×1000; with C. albicans AIDS68 (day 2) it was 62.6 ± 1.5 ×1000; in the test on C. albicans AIDS68 (day 5) it was 40.6 ± 1.4 ×1000; in the test on C. albicans AIDS68 (day 7) it was 23.2 ± 1.4 ×1000; in the test with C. albicans AIDS68 (day 14), 12.8 ± 1.2 ×1000. Also, the “Candida AIDS68 cells” value was 3.4 ± 1.7 ×1000 in the test with C. albicans AIDS68 (day 21) and 0 ± 0 ×1000 in the test on C. albicans AIDS68 (day 28).
Regarding `O=C(C1OC2CN(Cc3ccccc3)C(=O)C1O2)N1CCN(CCO)CC1` (stereo not shown) [Cpd 7], the “1% percent of inhibition” value on SAP2 is on record as 34%.
Take `O=C(C1OC2CN(Cc3ccccc3)C(=O)C1O2)N1CCOCC1` (stereo not shown) [Cpd 8]: the “1% percent of inhibition” value at SAP2 was determined as 31%.
On the same count and under the same terms, then `CCOC(=O)N1CCN(C(=O)C2OC3CN(Cc4ccccc4)C(=O)C2O3)CC1` (stereo not shown) [Cpd 9], with 37%; and `O=C(NCCCO)C1OC2CN(Cc3ccccc3)C(=O)C1O2` (stereo not shown) [Cpd 10], with 12%; and `O=C(NC(CO)c1ccccc1)C1OC2CN(Cc3ccccc3)C(=O)C1O2` (stereo not shown) [Cpd 13], with 16%.
With `O=C(NC(CO)Cc1ccccc1)C1OC2CN(Cc3ccccc3)C(=O)C1O2` (stereo not shown) [Cpd 14], at SAP2, the “1% percent of inhibition” value is 19%.
In the case of `O=C(NC(CO)Cc1ccccc1)C1OC2CN(Cc3ccccc3)C(=O)C1O2` (stereo not shown) [Cpd 15], the “1% percent of inhibition” value at SAP2 worked out at 15%.
The same measure, in the same setting: then `CCCCNC(=O)C1OC2OC1C(=O)N(Cc1ccccc1)C2Cc1ccccc1` (stereo not shown) [Cpd 16], with 17%; and `CCCCCCNC(=O)C1OC2OC1C(=O)N(Cc1ccccc1)C2Cc1ccccc1` (stereo not shown) [Cpd 17], with 21%; and `O=C(NCC(F)(F)F)C1OC2OC1C(=O)N(Cc1ccccc1)C2Cc1ccccc1` (stereo not shown) [Cpd 18], with 17%.
In the case of `O=C(C1OC2OC1C(=O)N(Cc1ccccc1)C2Cc1ccccc1)N1CCOCC1` (stereo not shown) [Cpd 19], at SAP2, the “1% percent of inhibition” value is given as 25%.
As for `O=C(C1OC2OC1C(=O)N(Cc1ccccc1)C2Cc1ccccc1)N1CCSCC1` (stereo not shown) [Cpd 20], the “1% percent of inhibition” value at SAP2 amounted to 28%.
Regarding `O=C(C1OC2OC1C(=O)N(Cc1ccccc1)C2Cc1ccccc1)N1CCN(CCO)CC1` (stereo not shown) [Cpd 21], on SAP2, the “1% percent of inhibition” value came to 31%.
For `OC(Cn1cncn1)(Cn1cncn1)c1ccc(F)cc1F` [fluconazole], the “Candida AIDS68 cells” value with C. albicans AIDS68 (day 0) is recorded as >100 ± 0 ×1000; in the test on C. albicans AIDS68 (day 1), 100 ± 0 ×1000; with C. albicans AIDS68 (day 2) it was 93 ± 4.3 ×1000; in the test with C. albicans AIDS68 (day 5), 61 ± 2.5 ×1000; in the test on C. albicans AIDS68 (day 7) it was 44 ± 2.9 ×1000; in the test on C. albicans AIDS68 (day 14), 18.7 ± 3.8 ×1000. In addition, the entries for the “Candida AIDS68 cells” value in the test on C. albicans AIDS68 (day 21) and with C. albicans AIDS68 (day 28) were 11.7 ± 0.7 ×1000 and 0 ± 0 ×1000, respectively.
With `CC(C)CC(=O)N[C@H](C(=O)N[C@H](C(=O)N[C@@H](CC(C)C)[C@@H](O)CC(=O)N[C@@H](C)C(=O)N[C@@H](CC(C)C)[C@@H](O)CC(=O)O)C(C)C)C(C)C` [pepstatin, reference compound] (Isovaleryl-VV[Sta]A[Sta]-OH), the “Candida SA40 cells” value with C. albicans SA40 (day 0) is >100 ×1000; in the test on C. albicans SA40 (day 1) it was 56.8 ± 2 ×1000; in the test on C. albicans SA40 (day 2), 51 ± 1.2 ×1000; in the test with C. albicans SA40 (day 5) it was 32.4 ± 2.5 ×1000; in the test on C. albicans SA40 (day 7), 28 ± 1.5 ×1000; with C. albicans SA40 (day 14), 9.4 ± 1.4 ×1000. For the same compound, the figures for the “Candida SA40 cells” value in the test on C. albicans SA40 (day 21) and in the test on C. albicans SA40 (day 28) were 5 ± 1.3 ×1000 and 0 ×1000, respectively. Besides, the “Candida AIDS68 cells” value with C. albicans AIDS68 (day 0) is >100 ± 0 ×1000; in the test with C. albicans AIDS68 (day 1) it was 58.4 ± 1.0 ×1000; in the test with C. albicans AIDS68 (day 2), 52.0 ± 1.3 ×1000; in the test on C. albicans AIDS68 (day 5), 37.2 ± 1.6 ×1000; in the test with C. albicans AIDS68 (day 7) it was 30.0 ± 1.2 ×1000; in the test on C. albicans AIDS68 (day 14), 19.8 ± 0.8 ×1000. Also, the “Candida AIDS68 cells” value with C. albicans AIDS68 (day 21) is given as 3.8 ± 1.9 ×1000; in the test with C. albicans AIDS68 (day 28) it was 0 ± 0 ×1000.
